From patent publication US9090701B2, “Methods of detecting oxidized calcium/calmodulin dependent protein kinase II” (University of Iowa Research Foundation, priority 2008, dated 2015)

How the values were obtained:
[1] = test system: cardiomyocytes; assay: Isolated cardiomyocyte TUNEL staining; assay type: cell-based, mouse; conditions: 100 nM, 24 hours
Description: Myocyte isolations from neonatal mouse or rat pups were modified from previously described methods (Mohler e.g., 2007). To generate the primary cardiomyocyte cultures, hearts were dissected from P1 animals and placed in 1 mL of Ham's F-10. Atrial tissue was removed and the ventricular chambers were rinsed to remove any remaining blood. Hearts were transferred into 1.5 mL of 0.05% Trypsin, 200 μM EDTA in Ham's F-10 medium (Mediatech). Hearts were minced into approximately 20 small pieces using forceps and small scissors and incubated in the Trypsin/EDTA medium at 37° C. Following 15 min, the heart pieces were mixed by a Pasteur pipette and incubated for an additional 15 min. A mixture of 200 μL of soybean trypsin inhibitor (2 mg/mL; Worthington) and 200 μL of collagenase (0.2 mg/mL; 1980 units/mg; Sigma) was incubated with the cells for 35-50 min at 37° C. The cell suspension was pelleted, resuspended in “Complete Medium” (40% DMEM, 40% Ham's F-10, 20% FCS), and plated on plastic dishes. Following five hours, the non-adhered cells (cardiomyocytes) were aspirated from the plate, pelleted, resuspended in Complete Medium, and plated on Mattek tissue culture plates (fibronectin-coated; Roche). Cardiomyocytes were washed with Ham's F-10 and Medium was replaced with “Defined Medium” to prevent the growth of fibroblasts. 100× Defined Medium consists of 100 μg/mL insulin, 500 μg/mL transferrin, 100 nM LiCl, 100 nM NaSeO4, and 10 nM thyroxine. To ensure that pure populations of cardiomyocytes were obtained, cultures were immunolabeled with alpha-actinin Ig (cardiomyocyte-specific marker). Only cultures with >90% cardiomyocytes were used in experiments. (See FIG. 12.) Lentiviral treatments (shRNA, rescue constructs) and apoptosis inducing agents (Iso, AngII) were used for 24 hours. Cells were fixed in 4% paraformaldehyde, permeabilized in 0.1% Triton X-100 and sodium citrate, and stained using In Situ cell death detection kits, TMR Red (Roche). TUNEL stain assays were interpreted as previously described (Yang e.g., 2006). Nuclei were co-stained with DAPI. Investigators were blinded to the genetic identity and treatment of the mice in all studies.
Cardiomyocytes from mice that express an inhibitory peptide against CaMKII (AC3-I, Zhang e.g., 2005) were treated with 100 nM AngII for 24 hours in parallel with isolated cardiomyocytes from WT and p47^−/− mice. […] Activity assays for caspase-3, a downstream target enzyme in the CaMKII apoptotic signaling pathway in heart, recapitulated the results from the TUNEL assay (FIG. 7A).

[2] = test system: cardiomyocytes; assay: ROS detection with DHE in cardiomyocytes; assay type: cell-based, mouse; conditions: 100 nM
Description: Changes in ROS levels in cultured primary cardiac myocytes after agonist stimulation were measured using the fluorogenic probe dihydroethidium (DHE, 5 μM, Molecular Probes), as previously described (Zimmerman e.g., 2004). DHE fluorescent images were acquired using confocal microscopy (Zeiss LSM510).
In order to validate the connection between AngII and ROS in this experimental model, isolated cardiomyocytes from WT and p47^−/− mice were treated with 100 nM AngII and monitored production of ROS by Imaging DHE, a fluorescent reporter for superoxide and hydrogen peroxide (FIG. 7C). Wild-type cardiomyocytes were incubated with fura-2 AM, a cell-permeant calcium indicator to observe changes in intracellular Ca^2+ ([Ca^2+]i).

angiotensin II (DRVYIHPF; Angiotensin-2; UniProt P01019 25-32, looked up) [AngII, oxidant stimulating agent in cardiac tissue]
Percent of TUNEL positive nuclei ([1]; WT cells): significant increase | Percent of TUNEL positive nuclei ([1]; p47−/− or AC3-I cardiomyocytes): no significant effect | ROS production ([2]; WT cardiomyocytes): significant increase in ROS production | ROS production (significant increase) ([2]; p47−/− cardiomyocytes): not
